In paper PMC9250534, “Synthesis and direct assay of large macrocycle diversities by combinatorial late-stage modification at picomole scale” (Nature Communications, 2022):
“And” between values parts separate entries of the source, which are not always exact repeats. Identical values can stand only once. Like-named read-outs stand apart in the source and are kept apart here. Blank lines part the entries; values can stand above or below the compound they belong to.

Legend:
MDM2 [1] = target: T1, MDM2 (Homo sapiens, UniProt Q00987); assay: MDM2 binding (FP53 displacement) by HPLC fractions of resynthesized hit reactions
T1 sequence (Q00987 whole entry): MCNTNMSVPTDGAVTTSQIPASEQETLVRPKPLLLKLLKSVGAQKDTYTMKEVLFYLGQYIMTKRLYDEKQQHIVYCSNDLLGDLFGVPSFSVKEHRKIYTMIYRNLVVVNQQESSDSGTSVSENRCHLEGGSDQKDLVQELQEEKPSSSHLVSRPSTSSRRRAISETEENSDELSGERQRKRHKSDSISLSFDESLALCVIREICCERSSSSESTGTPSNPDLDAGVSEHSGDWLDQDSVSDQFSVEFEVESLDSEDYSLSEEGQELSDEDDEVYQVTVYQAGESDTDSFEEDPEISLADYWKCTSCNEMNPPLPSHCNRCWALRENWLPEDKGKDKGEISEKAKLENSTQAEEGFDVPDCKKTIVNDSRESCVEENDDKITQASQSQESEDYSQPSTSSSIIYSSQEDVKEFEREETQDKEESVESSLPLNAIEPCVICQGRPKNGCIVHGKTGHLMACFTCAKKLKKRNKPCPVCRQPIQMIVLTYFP
Method: For hits from the MDM2 screen, reactions were performed in the same way but at a 50 nmol scale, and purified with the same method but a 10–80% gradient of solvent B and over 22 min. Fractions were lyophilized and dissolved in 40 μL of DMSO, 160 μL of water was added, and 5 μL of each fraction was transferred to a 384-well plate (Nunc, 264705), and 15 μL of premixed MDM2/FP53 peptide were added (final concentrations: 1.2 μM MDM2, 50 nM FP53, 5% DMSO).

MDM2 [2] = target: T1, MDM2; assay: IC50 of purified MDM2-binding macrocycles, fluorescence polarization competition with FP53; settings: for IC50: HPLC-purified macrocycle, FP displacement of fluorescent reporter peptide; for displacement of fluorescent peptide probe from MDM2: HPLC-purified macrocycles, FP competition; for anisotropy: replicates 1-3
Method: Volumes of 5 μL of purified macrocycles (20 mM in DMSO) were serial diluted two-fold in 100% DMSO in a low dead-volume ECHO source plate. Using acoustic droplet transfer, 150 nL of each dilution was transferred to a 384 well low volume polystyrene plate (Nunc, 264705). […] Fluorescence anisotropy was measured as described above. The percentage of bound inhibitor was calculated using the following equation4 %boundinhibitor=N−X/N−P×100 where N is the average anisotropy of the DMSO controls, X is the anisotropy value obtained for each well, and P is the average anisotropy of the unbound probe. The IC50s were determined by plotting the percent of bound inhibitor against the logarithm of the corresponding macrocycle concentration, and the curves were fitted in GraphPad Prism 6 as described above.

MDM2 [3] = target: T1, MDM2; assay: Kd of MDM2 binders by surface plasmon resonance (SPR); format: binding; settings: unlabeled macrocycles; triplicate
Method: Experiments were performed using a GE Healthcare Biacore 8 K instrument. MDM2 (10 μg/mL) was dissolved in 10 mM MES buffer (pH 6.0) and immobilized on three channels of a CM5 series S chip (Cytiva, 29104988) using EDC/NHS amine coupling conditions in running buffer (10 mM PBS pH 7.4, 150 mM NaCl, 3 mM KCl, and 0.005% v/v Tween 20). Typical immobilization level was 6000 to 7000 resonance units (RUs). The reference cell was treated the same way without MDM2. For the measurement of binding kinetics and dissociation constants, five serial dilutions (3-fold) of macrocycles plus a DMSO blank were prepared in running buffer (10 mM PBS pH 7.4, 150 mM NaCl, 3 mM KCl, and 0.005% v/v Tween 20, and 0.5% v/v DMSO) and analyzed in single cycle kinetics mode with contact and dissociation times of 120 s and 60 s, respectively. The data was collected and analyzed using the Biacore 8 K Control Software.
Supplementary Figure 14. Binding of macrocycles to MDM2 measured by SPR. a, Single-cycle SPR sensorgrams for fluorescein-labeled macrocycles, positive control nutlin-3a (not fluorescein labeled), and negative controls (thrombin inhibitors; not fluorescein labeled). RU, response unit. b, Single-cycle SPR sensorgrams for macrocycles M6, M7, M8 and M10 (not fluorescein-labeled), performed in triplicate.
(1 picture or pasted object on this page, not shown here)

MDM2 [4] = target: T1, MDM2; assay: MDM2 binding screen of Libraries 3 and 4: displacement of fluorescent probe F-M8 at 750 nM macrocycle; settings: 750 nM macrocycle; crude reaction; probe F-M8
Method in brief: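 Competition with nutlin-3a was run using the fluorescein conjugate. Library members came from scaffolds reacted 6 h at room temperature with carboxylic acids (20 equiv.), HBTU and DABCO in DMSO. Quenching was overnight in Tris-Cl pH 7.4 buffer with 0.01% Tween20.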

[5] = prodrug; cited from earlier work
MDM2 [6] = settings: MDM2 inhibitor in clinical studies; literature value, no reference given; read-out: HTRF IC50; cited from earlier work
[7] = HPLC Fraction 1 of acylation reaction
[8] = HPLC Fraction 2 of acylation reaction
[9] = HPLC Fraction 3 of acylation reaction
[10] = HPLC Fraction 4 of acylation reaction
[11] = HPLC Fraction 5 of acylation reaction
[12] = HPLC Fraction 6 of acylation reaction
[13] = HPLC Fraction 7 of acylation reaction
[14] = HPLC Fraction 8 of acylation reaction
[15] = HPLC Fraction 9 of acylation reaction
[16] = HPLC Fraction 10 of acylation reaction
[17] = HPLC Fraction 11 of acylation reaction
[18] = HPLC Fraction 12 of acylation reaction
[19] = HPLC Fraction 13 of acylation reaction
[20] = HPLC Fraction 14 of acylation reaction
[21] = HPLC Fraction 15 of acylation reaction
[22] = HPLC Fraction 16 of acylation reaction
[23] = HPLC Fraction 17 of acylation reaction
[24] = HPLC Fraction 18 of acylation reaction
[25] = HPLC Fraction 19 of acylation reaction
[26] = HPLC Fraction 20 of acylation reaction
[27] = average of 3 replicates, read-out: IC50 Average
[28] = replicate 1, read-out: IC50 Replicate 1
[29] = replicate 2, read-out: IC50 Replicate 2
[30] = replicate 3, read-out: IC50 Replicate 3

Fraction bound (fraction fluorescent probe displaced) (MDM2 [1]; [7]): -0.09
Fraction bound (fraction fluorescent probe displaced) (MDM2 [1]; [8]): 0.04
Fraction bound (fraction fluorescent probe displaced) (MDM2 [1]; [9]): 0.0145
Fraction bound (fraction fluorescent probe displaced) (MDM2 [1]; [10]): 0.04
Fraction bound (fraction fluorescent probe displaced) (MDM2 [1]; [11]): -0.0633
Fraction bound (fraction fluorescent probe displaced) (MDM2 [1]; [12]): -0.0373
Fraction bound (fraction fluorescent probe displaced) (MDM2 [1]; [13]): -0.0114
Fraction bound (fraction fluorescent probe displaced) (MDM2 [1]; [14]): -0.0114
Fraction bound (fraction fluorescent probe displaced) (MDM2 [1]; [15]): 0.0664
Fraction bound (fraction fluorescent probe displaced) (MDM2 [1]; [16]): -0.0373
Fraction bound (fraction fluorescent probe displaced) (MDM2 [1]; [17]): -0.09
Fraction bound (fraction fluorescent probe displaced) (MDM2 [1]; [18]): -0.0633
Fraction bound (fraction fluorescent probe displaced) (MDM2 [1]; [19]): -0.0373
Fraction bound (fraction fluorescent probe displaced) (MDM2 [1]; [20]): 0.27
Fraction bound (fraction fluorescent probe displaced) (MDM2 [1]; [21]): -0.22
Fraction bound (fraction fluorescent probe displaced) (MDM2 [1]; [22]): -0.0114
Fraction bound (fraction fluorescent probe displaced) (MDM2 [1]; [23]): 0.04
Fraction bound (fraction fluorescent probe displaced) (MDM2 [1]; [24]): -0.0373
Fraction bound (fraction fluorescent probe displaced) (MDM2 [1]; [25]): -0.24
Fraction bound (fraction fluorescent probe displaced) (MDM2 [1]; [26]): -0.0633
IC50 (MDM2 [2]; [27]): 2400 nM
IC50 (MDM2 [2]; [28]): 2600 nM
IC50 (MDM2 [2]; [29]): 1900 nM
IC50 (MDM2 [2]; [30]): 2600 nM
displacement of fluorescent peptide probe from MDM2 (MDM2 [2]): efficiently displaced
anisotropy (MDM2 [2]; Log[Macrocycle] M -4.0): 25 and 23 and 22
anisotropy (MDM2 [2]; Log[Macrocycle] M -4.3): 31 and 28 and 30
anisotropy (MDM2 [2]; Log[Macrocycle] M -4.6): 33 (2×) and 32
anisotropy (MDM2 [2]; Log[Macrocycle] M -4.9): 38 and 32 and 40
anisotropy (MDM2 [2]; Log[Macrocycle] M -5.2): 47 and 39 and 44
anisotropy (MDM2 [2]; Log[Macrocycle] M -5.5): 51 and 45 and 47
anisotropy (MDM2 [2]; Log[Macrocycle] M -5.8): 62 and 52 and 55
anisotropy (MDM2 [2]; Log[Macrocycle] M -6.1): 69 and 59 and 62
anisotropy (MDM2 [2]; Log[Macrocycle] M -6.4): 80 and 67 and 64
anisotropy (MDM2 [2]; Log[Macrocycle] M -6.7): 83 and 68 and 74
anisotropy (MDM2 [2]; Log[Macrocycle] M -7.0): 78 and 72 and 75
anisotropy (MDM2 [2]; Log[Macrocycle] M -7.3): 86 and 75 and 80
anisotropy (MDM2 [2]; Log[Macrocycle] M -7.6): 89 and 77 and 85
anisotropy (MDM2 [2]; Log[Macrocycle] M -7.9): 88 and 77 and 82
anisotropy (MDM2 [2]; Log[Macrocycle] M -8.2): 89 and 77 and 85
anisotropy (MDM2 [2]; Log[Macrocycle] M -8.5): 91 and 80 and 78
Kd (MDM2 [3]): 600 ± 300 nM
SMILES: O=C(NC[C@@H]1NC(=O)[C@H]2CCCN(C2)C(=O)CCSSCCNC(=O)[C@H](Cc2c[nH]c3ccccc23)NC1=O)c1ccc(Cl)s1 [M6]

displacement of fluorescent probe from MDM2 (MDM2 [4]): 21%
Fraction bound (fraction fluorescent probe displaced) (MDM2 [1]; [7]): 0.08
Fraction bound (fraction fluorescent probe displaced) (MDM2 [1]; [8]): 0.25
Fraction bound (fraction fluorescent probe displaced) (MDM2 [1]; [9]): 0.02
Fraction bound (fraction fluorescent probe displaced) (MDM2 [1]; [10]): -0.000869
Fraction bound (fraction fluorescent probe displaced) (MDM2 [1]; [11]): -0.0422
Fraction bound (fraction fluorescent probe displaced) (MDM2 [1]; [12]): -0.000869
Fraction bound (fraction fluorescent probe displaced) (MDM2 [1]; [13]): 0.02
Fraction bound (fraction fluorescent probe displaced) (MDM2 [1]; [14]): 0.02
Fraction bound (fraction fluorescent probe displaced) (MDM2 [1]; [15]): 0.04
Fraction bound (fraction fluorescent probe displaced) (MDM2 [1]; [16]): -0.0422
Fraction bound (fraction fluorescent probe displaced) (MDM2 [1]; [17]): -0.0422
Fraction bound (fraction fluorescent probe displaced) (MDM2 [1]; [18]): -0.0216
Fraction bound (fraction fluorescent probe displaced) (MDM2 [1]; [19]): 0.37
Fraction bound (fraction fluorescent probe displaced) (MDM2 [1]; [20]): 0.04
Fraction bound (fraction fluorescent probe displaced) (MDM2 [1]; [21]): -0.13
Fraction bound (fraction fluorescent probe displaced) (MDM2 [1]; [22]): -0.0216
Fraction bound (fraction fluorescent probe displaced) (MDM2 [1]; [23]): -0.0216
Fraction bound (fraction fluorescent probe displaced) (MDM2 [1]; [24]): -0.21
Fraction bound (fraction fluorescent probe displaced) (MDM2 [1]; [25]): -0.17
Fraction bound (fraction fluorescent probe displaced) (MDM2 [1]; [26]): -0.23
IC50 (MDM2 [2]; [27]): 900 nM
IC50 (MDM2 [2]; [28]): 1000 nM
IC50 (MDM2 [2]; [29]): 840 nM
IC50 (MDM2 [2]; [30]): 860 nM
displacement of fluorescent peptide probe from MDM2 (MDM2 [2]): efficiently displaced
anisotropy (MDM2 [2]; Log[Macrocycle] M -4.0): 50 and 44 and 45
anisotropy (MDM2 [2]; Log[Macrocycle] M -4.3): 50 and 43 and 47
anisotropy (MDM2 [2]; Log[Macrocycle] M -4.6): 52 and 45 and 51
anisotropy (MDM2 [2]; Log[Macrocycle] M -4.9): 53 and 50 and 49
anisotropy (MDM2 [2]; Log[Macrocycle] M -5.2): 59 and 42 and 53
anisotropy (MDM2 [2]; Log[Macrocycle] M -5.5): 61 and 53 and 54
anisotropy (MDM2 [2]; Log[Macrocycle] M -5.8): 67 and 55 and 59
anisotropy (MDM2 [2]; Log[Macrocycle] M -6.1): 73 and 65 and 68
anisotropy (MDM2 [2]; Log[Macrocycle] M -6.4): 80 and 68 and 73
anisotropy (MDM2 [2]; Log[Macrocycle] M -6.7): 85 and 73 and 80
anisotropy (MDM2 [2]; Log[Macrocycle] M -7.0): 87 (2×) and 82
anisotropy (MDM2 [2]; Log[Macrocycle] M -7.3): 92 and 79 and 84
anisotropy (MDM2 [2]; Log[Macrocycle] M -7.6): 94 and 80 and 85
anisotropy (MDM2 [2]; Log[Macrocycle] M -7.9): 90 and 80 and 83
anisotropy (MDM2 [2]; Log[Macrocycle] M -8.2): 94 and 77 and 85
anisotropy (MDM2 [2]; Log[Macrocycle] M -8.5): 93 and 83 (2×)
SMILES: O=C(/C=C/c1ccccc1)NC[C@@H]1NC(=O)[C@H]2CCCN(C2)C(=O)CCSSCCNC(=O)[C@H](Cc2c[nH]c3ccccc23)NC1=O [M8]

SMILES: CCCCCCOC(=O)NC(=N)c1ccc(NCc2nc3cc(C(=O)N(CCC(=O)OCC)c4ccccn4)ccc3n2C)cc1 [dabigatran etexilate]
oral availability [5]: < 6.5%
